# Reference: ChEMBL document CHEMBL5537156, “Discovery and Optimization of WDR5 Inhibitors via Cascade Deoxyribonucleic Acid-Encoded Library Selection Approach” (J Med Chem, 2024)
# Tests used:
# MV4-11 = test: Antiproliferative activity against human MV4-11 cells harboring MLL-r assessed as cell growth inhibition incubated for 5 days by CCK-8 assay; format: functional, cell-based
# K562 = test: Antiproliferative activity against human K562 cells assessed as cell growth inhibition incubated for 5 days by CCK-8 assay; format: functional, cell-based
# [1] = biological target: Histone-lysine N-methyltransferase 2A/WDR5 (Homo sapiens, UniProt P61964); test: Inhibition of MLL1/WDR5 (unknown origin) protein-protein interaction incubated for 60 mins by HTRF analysis; format: protein assay
SMILES,"IC50 (MV4-11; Homo sapiens, MV4-11, 120 h) [µM]","IC50 (K562; Homo sapiens, K562, 120 h) [µM]",IC50 [1] [µM],IC50 (MV4-11; mv4-11) [µM],IC50 (K562; k562) [µM]
COC(=O)[C@@H](Cc1ccc(Cl)cc1)NC(=O)c1cc(NCc2nc[nH]c2C)cc(-c2ccccc2SC)c1,3.9,3,,,
CNC(=O)[C@@H](Cc1ccc(Cl)cc1)NC(=O)c1cc(NCc2nc[nH]c2C)cc(-c2ccccc2SC)c1,1.9,1.1,0.0113,,
COC(=O)[C@@H](Cc1ccc(Cl)cc1)NC(=O)c1cc(NCc2nc[nH]c2C)cc(-c2cc(CO)ccc2C)c1,5.5,4.9,,,
CSc1cc(F)ccc1-c1cc(NCc2nc[nH]c2C)cc2c1CCN(CCc1ccc(Cl)cc1)C2=O,3.5,4,0.0395,,
Cc1[nH]cnc1CNc1cc(C(=O)N[C@H](Cc2ccc(Cl)cc2)C(=O)O)ccc1F,,,0.0846,,
CNC(=O)[C@@H](Cc1ccc(Cl)cc1)NC(=O)c1cc(NCc2nc[nH]c2C)cc(-c2ccccc2C2CC2)c1,,,0.0188,,
CNC(=O)[C@@H](Cc1ccc(Cl)cc1)NC(=O)c1cc(NCc2nc[nH]c2C)cc(-c2ccc(C(C)(F)F)cc2)c1,,,0.149,,
Cc1[nH]cnc1CNc1cc(Br)cc(C(=O)N[C@H](Cc2ccc(Cl)cc2)C(=O)NC2CC2)c1,,,0.0324,,
CSc1cc(F)ccc1-c1cc(NCc2nc[nH]c2C)cc2c1CCN(Cc1ccc(Cl)cc1)C2=O,2.3,3.5,0.0269,,
Cc1[nH]cnc1CNc1cc(Br)cc(C(=O)NCCc2ccc(Cl)cc2)c1,,,0.221,,
CNC(=O)[C@@H](Cc1ccc(Cl)cc1)NC(=O)c1cc(Br)cc(NCc2nc[nH]c2C)c1,,,0.0252,,
CNC(=O)[C@@H](Cc1ccc(Cl)cc1)NC(=O)c1cc(NCc2nc[nH]c2C)cc(-c2cc(CO)ccc2C)c1,5,12.2,0.0086,,
CSc1ccccc1-c1cc(NCc2nc[nH]c2C)cc2c1CCN(Cc1ccc(Cl)cc1)C2=O,3.4,4.9,0.0405,,
Cc1[nH]cnc1CNc1cc(C(=O)N[C@H](Cc2ccc([N+](=O)[O-])cc2)C(=O)O)ccc1F,,,0.239,,
Cc1[nH]cnc1CNc1cc(Br)cc(C(=O)N[C@H](Cc2ccc(Cl)cc2)C(=O)O)c1,,,0.05,,
CSc1ccccc1-c1cc(NCc2nc[nH]c2C)cc2c1CCN(CCc1ccc(Cl)cc1)C2=O,4.8,4.7,0.0416,,
Cc1[nH]cnc1CNc1cc2c(c(-c3ccc(Cl)cc3C(F)(F)F)c1)CCN(CCc1ccc(Cl)cc1)C2=O,4.8,5.2,0.0758,,
CNC(=O)[C@@H](Cc1ccc(Cl)cc1)NC(=O)c1cc(NCc2nc[nH]c2C)cc(-c2ccc(Cl)cc2C(F)(F)F)c1,6.2,3.43,0.0098,4.13,4.9
COc1cc(CN2CCc3c(cc(Cn4ccn(C)c4=N)cc3-c3ccc(F)cc3C)C2=O)cc(OC)c1,0.17,3.6,0.0068,,
CSc1ccccc1-c1cc(NCc2nc[nH]c2C)cc2c1CCCN(CCc1ccc(Cl)cc1)C2=O,3.93,3.03,0.319,,
Cc1ccc(CO)cc1-c1cc(NCc2nc[nH]c2C)cc2c1CCN(CCc1ccc(Cl)cc1)C2=O,6.2,3.4,0.0172,,
Cc1ccc(CO)cc1-c1cc(NCc2nc[nH]c2C)cc2c1CCN(Cc1ccc(Cl)cc1)C2=O,5.7,7.1,0.0155,,
